Each block holds one molecule with its values, some of them ahead of it. Calls of active or inactive are those of the source. No cut-off for these calls is given here.
Experiments:
[1] = test system: WM 266-4; experiment: Inhibition of cell invasiveness in human WM266-4 cells at 10 uM measured after 4 hrs by DiffQuick staining based light microscopic analysis; assay type: functional
[2] = test system: A549; experiment: Antiproliferative activity against human A549 cells assessed as inhibition of cell growth measured after 72 hrs by MTT assay; assay type: functional, cell-based; conditions: A549, 72 h
[3] = test system: WM 266-4; experiment: Induction of apoptosis in human WM266-4 cells assessed as viable cells at 1 uM measured after 72 hrs by Annexin V-FITC and PI staining based flow cytometry analysis (reference value: 98.2%); assay type: functional; conditions: read-out: Activity
[4] = test system: WM 266-4; experiment: Inhibition of clonogenicity in human WM266-4 cells assessed as proportion of cell colonies at 1 uM measured after 72 hrs relative to control; assay type: functional; design: scale not given: the % may be the effect or the level left
[5] = test system: WM 266-4; experiment: Induction of apoptosis in human WM266-4 cells assessed as late apoptotic cells at 1 uM measured after 72 hrs by Annexin V-FITC and PI staining based flow cytometry analysis (reference value: 0.5%); assay type: functional
[6] = test system: WM 266-4; experiment: Induction of apoptosis in human WM266-4 cells assessed as necrotic cells at 1 uM measured after 72 hrs by Annexin V-FITC and PI staining based flow cytometry analysis (reference value: […]); assay type: functional
[7] = test system: WM 266-4; experiment: Induction of apoptosis in human WM266-4 cells assessed as early apoptotic cells at 1 uM measured after 72 hrs by Annexin V-FITC and PI staining based flow cytometry analysis (reference value: 0.2%); assay type: functional
[8] = test system: WM 266-4; experiment: Inhibition of cell growth in human WM266-4 cells measured after 24 hrs; assay type: functional, cell-based; conditions: WM 266-4, 24 h
[9] = Drug metabolism in C57BL/6 naive mouse blood assessed as release of gemcitabine metabolite at 10 mg/kg, ip measured after 0.5 hrs by LC-MS/MS analysis; assay type: ADME, organism-based; conditions: in vivo
[10] = Drug uptake in C57BL/6 naive mouse blood at 10 mg/kg, ip measured after 4 hrs by LC-MS/MS analysis; assay type: ADME, organism-based; conditions: C57BL/6, mouse, whole blood, read-out: Drug uptake
[11] = Stability of the compound in C57BL/6 naive mouse blood at 10 mg/kg, ip measured for 1 hr by LC-MS/MS analysis; assay type: ADME, organism-based; conditions: in vivo
[12] = Stability of the compound in human A549 cells assessed as parent compound concentration at 10 uM measured per 2 x 10^6 cells after 4 hrs by LC-MS/MS analysis; assay type: ADME, cell-based; conditions: a549, 4 h
[13] = Stability of the compound in DMEM-F12 medium measured for 70 hrs by LC-MS/MS analysis; assay type: physicochemical
[14] = Chemostability of the compound in acetate buffer at pH 5.2 measured upto 48 hrs by LC-MS analysis; assay type: physicochemical; conditions: pH 5.2, 48 h
[15] = Drug uptake in human A549 cells at 20 uM in presence of alphavbeta3 integrin […], c(RGDyK) incubated for 2 hrs by LC-MS analysis; assay type: cell-based; conditions: a549, 2 h
[16] = Drug uptake in C57BL/6 naive mouse blood at 10 mg/kg, ip measured after 24 hrs by LC-MS/MS analysis; assay type: ADME, organism-based; conditions: C57BL/6, mouse, whole blood, read-out: Drug uptake
[17] = Drug metabolism in C57BL/6 naive mouse blood assessed as release of gemcitabine metabolite at 10 mg/kg, ip measured after 0.25 hrs by LC-MS/MS analysis; assay type: ADME, organism-based; conditions: in vivo
[18] = Drug metabolism in C57BL/6 naive mouse blood assessed as release of gemcitabine metabolite at 10 mg/kg, ip measured after 24 hrs by LC-MS/MS analysis; assay type: ADME, organism-based; conditions: in vivo
[19] = Drug uptake in C57BL/6 naive mouse blood at 10 mg/kg, ip measured after 2 hrs by LC-MS/MS analysis; assay type: ADME, organism-based; conditions: C57BL/6, mouse, whole blood, read-out: Drug uptake
[20] = Drug metabolism in C57BL/6 naive mouse blood assessed as release of gemcitabine metabolite at 10 mg/kg, ip measured after 4 hrs by LC-MS/MS analysis; assay type: ADME, organism-based; conditions: in vivo
[21] = Drug metabolism in C57BL/6 naive mouse blood assessed as release of gemcitabine metabolite at 10 mg/kg, ip measured after 8 hrs by LC-MS/MS analysis; assay type: ADME, organism-based; conditions: in vivo
[22] = Drug uptake in C57BL/6 naive mouse blood at 10 mg/kg, ip measured after 0.25 hrs by LC-MS/MS analysis; assay type: ADME, organism-based; conditions: C57BL/6, mouse, whole blood, read-out: Drug uptake
[23] = Drug metabolism in human A549 cells assessed as gemcitabine metabolite formation at 10 uM measured per 2 x 10^5 cells after 24 hrs by LC-MS/MS analysis; assay type: ADME, cell-based; conditions: a549, 24 h
[24] = Stability of the compound in human plasma at 1 ug/ml measured for 4 hrs by LC-MS/MS analysis; assay type: ADME, cell-free; conditions: at 1 µg/mL
[25] = Drug uptake in C57BL/6 naive mouse blood at 10 mg/kg, ip measured after 1 hr by LC-MS/MS analysis; assay type: ADME, organism-based; conditions: C57BL/6, mouse, whole blood, read-out: Drug uptake
[26] = Drug metabolism in C57BL/6 naive mouse blood assessed as release of gemcitabine metabolite at 10 mg/kg, ip measured after 6 hrs by LC-MS/MS analysis; assay type: ADME, organism-based; conditions: in vivo
[27] = Drug uptake in C57BL/6 naive mouse blood at 10 mg/kg, ip measured after 0.5 hrs by LC-MS/MS analysis; assay type: ADME, organism-based; conditions: C57BL/6, mouse, whole blood, read-out: Drug uptake
[28] = Drug uptake in C57BL/6 naive mouse blood at 10 mg/kg, ip measured after 6 hrs by LC-MS/MS analysis; assay type: ADME, organism-based; conditions: C57BL/6, mouse, whole blood, read-out: Drug uptake
[29] = Drug metabolism in C57BL/6 naive mouse blood assessed as release of gemcitabine metabolite at 10 mg/kg, ip measured after 2 hrs by LC-MS/MS analysis; assay type: ADME, organism-based; conditions: in vivo
[30] = Drug metabolism in C57BL/6 naive mouse blood assessed as release of gemcitabine metabolite at 10 mg/kg, ip measured after 1 hr by LC-MS/MS analysis; assay type: ADME, organism-based; conditions: in vivo
[31] = Drug uptake in human A549 cells at 20 uM in presence of alphavbeta3 integrin […]-cilengitide incubated for 2 hrs by LC-MS analysis; assay type: cell-based; conditions: a549, 2 h
[32] = Drug uptake in C57BL/6 naive mouse blood at 10 mg/kg, ip measured after 8 hrs by LC-MS/MS analysis; assay type: ADME, organism-based; conditions: C57BL/6, mouse, whole blood, read-out: Drug uptake
[33] = Drug metabolism in human A549 cells assessed as 2',2'-difluorodeoxyuridine metabolite concentration at 10 uM measured per 2X10^5 cells after 24 hrs by LC-MS/MS analysis; assay type: ADME, cell-based; conditions: a549, 24 h
[34] = Chemostability of the compound in phosphate buffer buffer at pH 7.4 measured upto 48 hrs by LC-MS analysis; assay type: physicochemical; conditions: pH 7.4, 48 h
[35] = Drug metabolism in human plasma assessed as gemcitabine release at 1 ug/ml by LC-MS/MS analysis; assay type: ADME, cell-free; conditions: dose 1 µg/ml
[36] = Drug metabolism in human plasma assessed as release of 2',2'-difluorodeoxyuridine metabolite at 1 ug/ml by LC-MS/MS analysis; assay type: ADME, cell-free; conditions: dose 1 µg/ml
[37] = Chemostability of the compound in phosphate buffer assessed as compound hydrolysis at pH 7.4 measured after 7 hrs by LC-MS analysis; assay type: physicochemical; conditions: pH 7.4, 7 h
[38] = Chemostability of the compound in phosphate buffer assessed as residual parent compound concentration at pH 7.4 measured after 24 hrs by LC-MS analysis; assay type: physicochemical; conditions: read-out: Activity

SMILES: N=C(N)NCCC[C@@H]1NC(=O)[C@H](CCCCN)NC(=O)[C@@H](Cc2ccc(O)cc2)NC(=O)[C@H](CC(=O)O)NC(=O)CNC1=O
inhibition [1]: Active

IC50 [2]: 18.8 nM
SMILES: Nc1ccn([C@@H]2O[C@H](CO)[C@@H](O)C2(F)F)c(=O)n1 [GEMCITABINE]
viability at 1 µM [3]: 78.3%
Activity [4]: 46.6%
Activity [5]: 5.1%
Activity [6]: 12.4%
Activity [7]: 4.1%
IC50 [8]: 17.8 µM

Drug metabolism [9]: 33 nM
concentration at 4 h [10]: 38 nM
Stability [11]: Stable
Drug uptake [12]: 5 ng
Stability [13]: Stable
Stability [14]: Stable
Drug uptake [15]: Not Active
concentration at 24 h [16]: 14 nM
IC50 [2]: 678 nM
Drug metabolism [17]: 748 nM
Drug metabolism [18]: 3 nM
concentration at 2 h [19]: 547 nM
Drug metabolism [20]: 7 nM
Drug metabolism [21]: 40 nM
concentration at 0.25 h [22]: 6.66 µM
Drug metabolism [23]: < 0.05 ng
Stability [24]: Stable
concentration at 1 h [25]: 3.32 µM
Drug metabolism [26]: 11 nM
concentration at 0.5 h [27]: 8.47 µM
concentration at 6 h [28]: 168 nM
Drug metabolism [29]: 6 nM
Drug metabolism [30]: 46 nM
Drug uptake [31]: Not Active
concentration at 8 h [32]: 11 nM
Drug metabolism [33]: 4 ng
Stability [34]: Stable
SMILES: N=C(N)NCCC[C@@H]1NC(=O)[C@H](CCCCNC(=O)OC[C@H]2O[C@@H](n3ccc(N)nc3=O)C(F)(F)[C@@H]2O)NC(=O)[C@@H](Cc2ccc(O)cc2)NC(=O)[C@H](CC(=O)O)NC(=O)CNC1=O
viability at 1 µM [3]: 72.3%
inhibition [1]: Active
Activity [4]: 8.3%
Activity [5]: 4.8%
Activity [6]: 21.7%
Activity [7]: 1.3%
IC50 [8]: 57.6 µM

Drug metabolism [35]: Metabolite_Detected
Drug metabolism [36]: Metabolite_Detected
Stability [14]: Stable
IC50 [2]: 30.6 nM
Stability [37]: Unstable
remaining at 24 h [38]: 85%
SMILES: N=C(N)NCCC[C@@H]1NC(=O)[C@H](CCCCNC(=O)OCCSSCCOC(=O)OC[C@H]2O[C@@H](n3ccc(N)nc3=O)C(F)(F)[C@@H]2O)NC(=O)[C@@H](Cc2ccc(O)cc2)NC(=O)[C@H](CC(=O)O)NC(=O)CNC1=O
viability at 1 µM [3]: 66.4%
inhibition [1]: Active
Activity [4]: 4.9%
Activity [5]: 2.2%
Activity [6]: 31.1%
Activity [7]: 0.3%
IC50 [8]: > 100 µM

— ChEMBL document CHEMBL5046252, “Integrin-Mediated Targeted Cancer Therapy Using c(RGDyK)-Based Conjugates of Gemcitabine” (J Med Chem, 2022)
